This note sets out measurements from the supplement of paper PMC10307832.

Experiment in all cases: relative viability (nuclei count vs DMSO), 5 days (fraction); higher = more cells survive
Compound in the test “AZD8055 + Bortezomib”: COc1ccc(-c2ccc3c(N4CCOC[C@@H]4C)nc(N4CCOC[C@@H]4C)nc3n2)cc1CO [AZD8055] + CC(C)C[C@H](NC(=O)[C@H](Cc1ccccc1)NC(=O)c1cnccn1)B(O)O [Bortezomib] (partner 0.002 µM)
An outline of the steps:
(§1)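 Nuclei were stained with Hoechst during a one-step fixation (final 0.05% Triton X-100, 1% formaldehyde, 1 ug/ml Hoechst) carried out 5 days after dosing, then counted on 4× images. The cells, lung cancer lines in 1536-well plates, had been dosed by pin tool the day after seeding with one drug alone or a fixed anchor-drug dose plus five library-drug doses (not always all listed) in √10 steps. Relative viability is the nuclei count in treated wells divided by that in vehicle wells, and each value is the median of duplicate plates.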

Compound in the test “AZD8055 + Olaparib”: COc1ccc(-c2ccc3c(N4CCOC[C@@H]4C)nc(N4CCOC[C@@H]4C)nc3n2)cc1CO [AZD8055] + O=C(c1cc(Cc2n[nH]c(=O)c3ccccc23)ccc1F)N1CCN(C(=O)C2CC2)CC1 [Olaparib] (partner 8 µM)
The method, boiled down:
as §1

Compound in the test “AZD8055 + Alpelisib”: COc1ccc(-c2ccc3c(N4CCOC[C@@H]4C)nc(N4CCOC[C@@H]4C)nc3n2)cc1CO [AZD8055] + Cc1nc(NC(=O)N2CCC[C@H]2C(N)=O)sc1-c1ccnc(C(C)(C)C(F)(F)F)c1 [Alpelisib] (partner 2 µM)
An outline of the steps:
as §1

Compound in the test “AZD8055 + Pemetrexed”: COc1ccc(-c2ccc3c(N4CCOC[C@@H]4C)nc(N4CCOC[C@@H]4C)nc3n2)cc1CO [AZD8055] + Nc1nc2[nH]cc(CCc3ccc(C(=O)N[C@@H](CCC(=O)O)C(=O)O)cc3)c2c(=O)[nH]1 [Pemetrexed] (partner 0.2 µM)
An outline of the steps:
as §1

Turning to NCI-H1299, the relative viability in the test with AZD8055 + Bortezomib (first compound 0.01 µM) amounted to 1.08; with AZD8055 + Bortezomib (first compound 0.03162 µM), 1.05; with AZD8055 + Bortezomib (first compound 0.1 µM), 1.11; with AZD8055 + Bortezomib (first compound 0.3162 µM), 0.931; in the test with AZD8055 + Bortezomib (first compound 1 µM) it was 0.576; with AZD8055 + Olaparib (first compound 0.01 µM), 1.06. The relative viability with AZD8055 + Olaparib (first compound 0.03162 µM) stood at 1.03; in the test with AZD8055 + Olaparib (first compound 0.1 µM) it was 0.889; with AZD8055 + Olaparib (first compound 0.3162 µM) it was 0.574; in the test with AZD8055 + Olaparib (first compound 1 µM) it was 0.353; in the test with AZD8055 + Alpelisib (first compound 0.01 µM) it was 1.17; with AZD8055 + Alpelisib (first compound 0.03162 µM), 1.04. Further, the relative viability with AZD8055 + Alpelisib (first compound 0.1 µM) was determined as 1.06; in the test with AZD8055 + Alpelisib (first compound 0.3162 µM), 0.628; in the test with AZD8055 + Alpelisib (first compound 1 µM), 0.468.
Turning to NCI-H1395, the relative viability stood at 0.479 with AZD8055 + Olaparib (first compound 0.01 µM); 0.412 in the test with AZD8055 + Olaparib (first compound 0.03162 µM); 0.407 with AZD8055 + Olaparib (first compound 0.1 µM); 0.358 in the test with AZD8055 + Olaparib (first compound 0.3162 µM); 0.432 with AZD8055 + Olaparib (first compound 1 µM); 1.09 in the test with AZD8055 + Alpelisib (first compound 0.01 µM). Moreover, the relative viability with AZD8055 + Alpelisib (first compound 0.03162 µM) was determined as 0.809; with AZD8055 + Alpelisib (first compound 0.1 µM), 0.691; in the test with AZD8055 + Alpelisib (first compound 0.3162 µM), 0.612; in the test with AZD8055 + Alpelisib (first compound 1 µM) it was 0.504; with AZD8055 + Pemetrexed (first compound 0.01 µM) it was 0.767; with AZD8055 + Pemetrexed (first compound 0.03162 µM), 0.547. Besides, the relative viability was found to be 0.735 with AZD8055 + Pemetrexed (first compound 0.1 µM), 0.385 in the test with AZD8055 + Pemetrexed (first compound 0.3162 µM) and 0.356 with AZD8055 + Pemetrexed (first compound 1 µM).
Consider NCI-H1648, for which the relative viability with AZD8055 + Olaparib (first compound 0.01 µM) came to 0.658; with AZD8055 + Olaparib (first compound 0.03162 µM), 0.739; with AZD8055 + Olaparib (first compound 0.1 µM) it was 0.561; in the test with AZD8055 + Olaparib (first compound 0.3162 µM), 0.239; with AZD8055 + Olaparib (first compound 1 µM), 0.287; with AZD8055 + Pemetrexed (first compound 0.01 µM) it was 0.942. For the same cell line, the relative viability in the test with AZD8055 + Pemetrexed (first compound 0.03162 µM) was determined as 0.675; with AZD8055 + Pemetrexed (first compound 0.1 µM), 0.641; with AZD8055 + Pemetrexed (first compound 0.3162 µM), 0.324; with AZD8055 + Pemetrexed (first compound 1 µM) it was 0.285.
As for NCI-H1650, the relative viability was found to be 0.299 with AZD8055 + Bortezomib (first compound 0.01 µM); 0.182 with AZD8055 + Bortezomib (first compound 0.03162 µM); 0.215 with AZD8055 + Bortezomib (first compound 0.1 µM); 0.208 in the test with AZD8055 + Bortezomib (first compound 0.3162 µM); 0.214 in the test with AZD8055 + Bortezomib (first compound 1 µM); 0.985 in the test with AZD8055 + Olaparib (first compound 0.01 µM). Further, the relative viability with AZD8055 + Olaparib (first compound 0.03162 µM) amounted to 0.865; with AZD8055 + Olaparib (first compound 0.1 µM), 0.726; with AZD8055 + Olaparib (first compound 0.3162 µM) it was 0.417; with AZD8055 + Olaparib (first compound 1 µM), 0.472; in the test with AZD8055 + Pemetrexed (first compound 0.01 µM), 0.403; in the test with AZD8055 + Pemetrexed (first compound 0.03162 µM), 0.463. Also, the figures for the relative viability with AZD8055 + Pemetrexed (first compound 0.1 µM), with AZD8055 + Pemetrexed (first compound 0.3162 µM) and with AZD8055 + Pemetrexed (first compound 1 µM) were 0.389, 0.39 and 0.29, respectively.
On to NCI-H1703, for which the relative viability came out at 0.278 with AZD8055 + Bortezomib (first compound 0.01 µM); 0.231 in the test with AZD8055 + Bortezomib (first compound 0.03162 µM); 0.18 in the test with AZD8055 + Bortezomib (first compound 0.1 µM); 0.181 in the test with AZD8055 + Bortezomib (first compound 0.3162 µM); 0.194 with AZD8055 + Bortezomib (first compound 1 µM); 0.751 in the test with AZD8055 + Olaparib (first compound 0.01 µM). The relative viability with AZD8055 + Olaparib (first compound 0.03162 µM) turned out to be 0.279; in the test with AZD8055 + Olaparib (first compound 0.1 µM), 0.326; with AZD8055 + Olaparib (first compound 0.3162 µM) it was 0.232; with AZD8055 + Olaparib (first compound 1 µM), 0.182; with AZD8055 + Alpelisib (first compound 0.01 µM), 0.328; with AZD8055 + Alpelisib (first compound 0.03162 µM) it was 0.297. For the same cell line, the results for the relative viability in the test with AZD8055 + Alpelisib (first compound 0.1 µM), in the test with AZD8055 + Alpelisib (first compound 0.3162 µM) and in the test with AZD8055 + Alpelisib (first compound 1 µM) were 0.237, 0.219 and 0.318, respectively.
NCI-H1793: the relative viability in the test with AZD8055 + Olaparib (first compound 0.01 µM) stood at 0.528; with AZD8055 + Olaparib (first compound 0.03162 µM), 0.329; with AZD8055 + Olaparib (first compound 0.1 µM) it was 0.221; with AZD8055 + Olaparib (first compound 0.3162 µM), 0.203; in the test with AZD8055 + Olaparib (first compound 1 µM) it was 0.213; in the test with AZD8055 + Alpelisib (first compound 0.01 µM) it was 0.605. The relative viability in the test with AZD8055 + Alpelisib (first compound 0.03162 µM) amounted to 0.347; in the test with AZD8055 + Alpelisib (first compound 0.1 µM) it was 0.224; with AZD8055 + Alpelisib (first compound 0.3162 µM) it was 0.175; in the test with AZD8055 + Alpelisib (first compound 1 µM), 0.17; with AZD8055 + Pemetrexed (first compound 0.01 µM), 0.721; with AZD8055 + Pemetrexed (first compound 0.03162 µM), 0.376. Also, the relative viability amounted to 0.268 with AZD8055 + Pemetrexed (first compound 0.1 µM), 0.184 with AZD8055 + Pemetrexed (first compound 0.3162 µM) and 0.225 with AZD8055 + Pemetrexed (first compound 1 µM).
Turning to NCI-H1944, the relative viability is 0.41 with AZD8055 + Olaparib (first compound 0.01 µM); 0.428 with AZD8055 + Olaparib (first compound 0.03162 µM); 0.393 in the test with AZD8055 + Olaparib (first compound 0.1 µM); 0.254 with AZD8055 + Olaparib (first compound 0.3162 µM); 0.259 in the test with AZD8055 + Olaparib (first compound 1 µM); 0.716 with AZD8055 + Alpelisib (first compound 0.01 µM). For the same cell line, the relative viability came to 0.63 with AZD8055 + Alpelisib (first compound 0.03162 µM); 0.543 with AZD8055 + Alpelisib (first compound 0.1 µM); 0.366 in the test with AZD8055 + Alpelisib (first compound 0.3162 µM); 0.25 with AZD8055 + Alpelisib (first compound 1 µM); 0.57 with AZD8055 + Pemetrexed (first compound 0.01 µM); 0.568 with AZD8055 + Pemetrexed (first compound 0.03162 µM). The relative viability is 0.454 in the test with AZD8055 + Pemetrexed (first compound 0.1 µM), 0.286 in the test with AZD8055 + Pemetrexed (first compound 0.3162 µM) and 0.294 with AZD8055 + Pemetrexed (first compound 1 µM).
Consider NCI-H2170, for which the relative viability in the test with AZD8055 + Olaparib (first compound 0.01 µM) is 0.67; with AZD8055 + Olaparib (first compound 0.03162 µM), 0.572; with AZD8055 + Olaparib (first compound 0.1 µM), 0.37; with AZD8055 + Olaparib (first compound 0.3162 µM), 0.198; with AZD8055 + Olaparib (first compound 1 µM), 0.183; in the test with AZD8055 + Alpelisib (first compound 0.01 µM), 0.691. Further, the relative viability came to 0.623 with AZD8055 + Alpelisib (first compound 0.03162 µM); 0.386 with AZD8055 + Alpelisib (first compound 0.1 µM); 0.288 with AZD8055 + Alpelisib (first compound 0.3162 µM); 0.252 with AZD8055 + Alpelisib (first compound 1 µM); 0.287 in the test with AZD8055 + Pemetrexed (first compound 0.01 µM); 0.288 in the test with AZD8055 + Pemetrexed (first compound 0.03162 µM). Further, the relative viability with AZD8055 + Pemetrexed (first compound 0.1 µM) worked out at 0.255; with AZD8055 + Pemetrexed (first compound 0.3162 µM) it was 0.24; with AZD8055 + Pemetrexed (first compound 1 µM) it was 0.248.
As for NCI-H2342, the relative viability worked out at 0.376 in the test with AZD8055 + Olaparib (first compound 0.01 µM); 0.439 in the test with AZD8055 + Olaparib (first compound 0.03162 µM); 0.362 with AZD8055 + Olaparib (first compound 0.1 µM); 0.309 with AZD8055 + Olaparib (first compound 0.3162 µM); 0.289 in the test with AZD8055 + Olaparib (first compound 1 µM); 0.748 with AZD8055 + Pemetrexed (first compound 0.01 µM). The relative viability with AZD8055 + Pemetrexed (first compound 0.03162 µM) turned out to be 0.785; with AZD8055 + Pemetrexed (first compound 0.1 µM), 0.542; in the test with AZD8055 + Pemetrexed (first compound 0.3162 µM) it was 0.49; in the test with AZD8055 + Pemetrexed (first compound 1 µM), 0.549.
Turning to SK-MES-1, the relative viability in the test with AZD8055 + Olaparib (first compound 0.01 µM) came to 0.748; in the test with AZD8055 + Olaparib (first compound 0.03162 µM), 0.484; with AZD8055 + Olaparib (first compound 0.1 µM) it was 0.328; with AZD8055 + Olaparib (first compound 0.3162 µM) it was 0.208; with AZD8055 + Olaparib (first compound 1 µM), 0.262; in the test with AZD8055 + Alpelisib (first compound 0.01 µM) it was 0.856. For the same cell line, the relative viability with AZD8055 + Alpelisib (first compound 0.03162 µM) turned out to be 0.64; in the test with AZD8055 + Alpelisib (first compound 0.1 µM) it was 0.542; in the test with AZD8055 + Alpelisib (first compound 0.3162 µM), 0.303; with AZD8055 + Alpelisib (first compound 1 µM), 0.269; in the test with AZD8055 + Pemetrexed (first compound 0.01 µM), 0.947; in the test with AZD8055 + Pemetrexed (first compound 0.03162 µM), 0.892. For the same cell line, the relative viability was found to be 0.833 in the test with AZD8055 + Pemetrexed (first compound 0.1 µM), 0.408 in the test with AZD8055 + Pemetrexed (first compound 0.3162 µM) and 0.326 with AZD8055 + Pemetrexed (first compound 1 µM).
